The text below walks through data of patent publication US4902678A, “Anti-viral compositions” (priority 1988, dated 1990).

For one series, the system named is human herpesviruses. The note with it: cited from earlier work.
Series [1] has as its system herpes virus-specific DNA-polymerase (DP). The note with it: hypothesis on mode of action; cited from earlier work.
The test system of series [2] is Cellular TK and DP enzymes. The note with it: cited from earlier work.
Series [3] relates to HSV mutants lacking the ability to induce DP (DP-mutants). The note with it: cited from earlier work.
The next series concerns HSV-1-Patton. Put plainly: Plaque reduction / viral plaque titration, HSV-1-Patton in HFF cells.
Another series relates to normal host cells. The note with it: cited from earlier work.
Series [4] concerns herpes virus-specific thymidine kinase (TK). The note with it: hypothesis on mode of action; cited from earlier work.
For the next series, the system named is HSV-1-227. Kind of series: Viral plaque titration, HSV-1-227 in HFF cells. The note with it: Table 3, G* 2.0 μg/ml, PAA 80 μg/ml, alone or combined; for Virus titer: no-drug control 28.
Series [5] has as its system HSV mutants lacking the ability to induce DP (DP-mutants). Kind of series: Activity against HSV mutants lacking the ability to induce DP (statement). Further details: species or system Herpes simplex virus.
In the next series the test system is HSV-1-EL 11. The note with it: Table 3, HFF cells, G* 0.4 μg/ml, PAA 25 μg/ml, alone or combined; for Virus titer: no-drug control 8.0.
The next series relates to HSV-2-EL 6. Kind of series: Viral plaque titration, HSV-2-EL 6 in HFF cells. The note with it: alone or combined.
Another series has as its system HSV-2-EL 4. Kind of series: Viral plaque titration, HSV-2-EL 4 in HFF cells. The note with it: alone or combined; for Virus titer: no-drug control 750.
In a further series the test system is HSV-2-EL 3. Put plainly: Viral plaque titration, HSV-2-EL 3 in HFF cells. The following applies: Table 3, G* 2.0 μg/ml, PAA 82 μg/ml, alone or combined; for Virus titer: no-drug control 77.
A further series deals with HSV-2-EL 1. The note with it: Table 3, HFF cells, G* 2.0 μg/ml, PAA 76 μg/ml, alone or combined; for Virus titer: no-drug control 170.
For series [6] the following is noted: topical formulation, drug concentrations in excess of 100mM; cited from earlier work.
[7] abbreviates: Table 1, multiplicity of infection less than one, G* 1.2, BVDU 0.11, ACG 2.0, PAA 250 μg/ml alone, same concentrations in combinations, no-drug control 147.
The mark [8] stands for this setting: Table 1, ratio of control titer to drug titer, G* 1.2, BVDU 0.11, ACG 2.0, PAA 250 μg/ml alone, same concentrations in combinations.
Setting [9] is: Table 2, G* 0.7 μg/ml, PFA 80 μg/ml.
Setting [10] is: Table 2, G* 0.7 μg/ml, PFA 80 μg/ml, no-drug control 150.
[11] abbreviates: Table 3, G* 0.6 μg/ml, PAA 90 μg/ml.
Where [12] appears, read: Table 3, G* 0.6 μg/ml, PAA 90 μg/ml, no-drug control 180.
Setting [13] is: Table 2, G* 3.0 μg/ml, PFA 80 μg/ml.
[14] abbreviates: Table 3, G* 2.0 μg/ml, PAA 90 μg/ml.
[15] abbreviates: Table 2, G* 0.7 μg/ml, PFA 80 μg/ml, alone or combined.
The mark [16] stands for this setting: Table 2, G* 0.7 μg/ml, PFA 80 μg/ml, alone or combined, no-drug control 3400.

Description for HSV-1-227: (§1) Human fetal fibroblasts (HFF) derived from fetal tissues were used in this study. Cells were grown and maintained in Basal Medium Eagle (BME) supplemented with 0.112% sodium bicarbonate, 2mML-glutamine, 2mg % Neomycin and 20% (vol/vol) calf serum.
(§2) HSV-2-EL 1, HSV-2-EL 3, HSV-2-EL 4, HSV-2-EL 6, HSV-1-EL 11 and HSV-1-227 are recent clinical isolates.
(§3) A viral plaque titration method (Roizman and Roane, 1961) was used to deteremine the titer of the HSV strain. Tissue culture dishes (35 by 10mm, Corning) were seeded with cells and used for assays when they were approximately 75% monolayer. Volumes (0.2ml) of logarithmic dilutions of the virus strain were inoculated onto each of two tissue culture dishes and adsorbed for 1 hr with intermittent shaking, the inoculum was removed and 2ml of 20% BME containing 0.5% human immune serum globulin was added. After a 48 hr. incubation period at 36° C. in a 5% CO2 atmosphere, the overlay medium was removed, and the cell sheets were stained with a 0.05% aqueous crystal violet solution. The plaque numbers were counted with the aid of a Nikon profile projector which magnified the dishes 10X. Duplicate results were averaged, and the number of plaque-forming units (PFU) was calculated. The virus titre is thus expressed as a number of plaque forming units to be seen after growth under these conditions.
(§4) Then combinations of the drugs were tested for activity by viral plaque titration, at concentrations which were multiples of the ED-50, of the individual drugs. In combinations involving G*, BVDU and AGC, a concentration ten times that of its ED-50 was used in the combination. This was intended to ensure a concentration sufficiently high to limit the number of partially drug-resistant virus plaques to a small fraction in respect of each drug of the combination. In respect of PAA, a concentration of five times ED-50 was used, to avoid cell toxicity problems. The drugs were individually plaque titrated at the same concentrations for comparison purposes.
(§5) The experiments described in Examples 1 and 2 were essentially repeated, but using the drugs G* and PAA alone and in combinations against samples of HFF cells each infected with one of six HSV strains, two of which were type 1 and four of which were type 2. Plaque titration methods as described above were used.
Description for HSV-1-EL 11: as §1, §2, §3, §4, §5
Description for HSV-1-Patton: as §1, §3
As antiviral drugs in these experiments, there were used acycloguanosine (ACG), phosphonoacetic acid (PAA), bromovinyl deoxyuridine (BVDU), phosphonoformic acid (PFA) and 9-[[2-hydroxy-1-(hydroxymethyl)ethoxy]methyl]guanine (G*). Stock solutions, 3mg/ml, of each drug were prepared as follows, kept at -20° C., and appropriate dilutions thereof were made in 20% BME just before usage:
In order to make comparisons between the activities of the various drugs and combinations, experiments were conducted by plaque titration to determine for each drug its viral ED-50 (i.e. the concentration thereof which inhibits HSV plaque formation by 50% in the HFF cells, as compared with cell cultures in the absence of the drug). For this purpose, tissue culture dishes (35 by 10 mm) with HFF cell monolayers at 75% confluence were inoculated with approximately 50 plaque-forming units of virus per 0.2 ml, and the virus was allowed to adsorb for 1 hr with intermittent shaking. After removal of the inoculum, 2 ml of 20% BME with 0.5% immune globulin and threefold dilutions of the appropriate drug were added to duplicate dishes. One set of dishes received no drug and was later used for the "no-drug control". After a 48 hr incubation period at 36° C. in a 5% CO2 atmosphere, the overlay medium was removed, the cells were stained as described above, and plaques were counted. After averaging the counts of duplicate plates, the fraction of plaques emerging in the presence of each drug dilution was calculated as a percent of the control. Each drug titration was plotted on semilogarithmic graph paper, with the number of plaques per dish as vertical axis and the drug concentration as horizontal axis. The viral ED-50 concentration was that amount of drug per ml of overlay medium that inhibited plaque numbers by 50%, compared with no-drug controls, and this was read off the graphic plot of the data.
Then combinations of the drugs were tested for activity by viral plaque titration, at concentrations which were multiples of the ED-50, of the individual drugs. In combinations involving G*, BVDU and AGC, a concentration ten times that of its ED-50 was used in the combination. […] In respect of PAA, a concentration of five times ED-50 was used, to avoid cell toxicity problems.
Description for HSV-2-EL 1: as §1, §2, §3, §4, §5
Description for HSV-2-EL 3: as §1, §2, §3, §4, §5
Description for HSV-2-EL 4: as §1, §2, §3, §4
(§6) In this example, combinations of G* and phosphonoformic acid PFA were tested, by plaque titration methods, for activity against a variety of herpesvirus strains in HFF cells, using procedures previously described. A stock solution of PFA was made up ahead of time, by dissolving 3 mg PFA in 1 ml of 20% BME, and stored at -20° C. It was appropriately diluted in 20% BME just before usage. Two herpesvirus type 2 strains and one herpesvirus type 1 strain were tested.
as §5
Description for HSV-2-EL 6: as §1, §2, §3, §4, §6, §5

For the compound `O=CC[C@@H](O)[C@H](O)[C@H](O)CO` [2DB, 2-deoxy-D-glucose], in the series with human herpesviruses, the “Activity against herpesviruses in prior art” value (from here on “Activity against herpesviruses”) is “some demonstrated activity against human herpesviruses”.

Turning to `Nc1nc2c(ncn2COCCO)c(=O)[nH]1` [ACG, 9-[2-hydroxyethoxymethyl]guanine], the “Interaction with viral DNA polymerase” value in series [1] was “inhibits the action of the herpes virus-specific DNA-polymerase (DP)”. The “Effect on cellular TK and DP enzymes” value in series [2] was “only slightly affected”. In series [3], the “Resistance of DP-mutants of HSV to drug” value is on record as “highly resistant”. The Virus titer in the series with HSV-1-Patton (setting [7]) was found to be 4.7 PFU/ml × 10^5. Besides, the Fold titer reduction in the series on HSV-1-Patton (setting [8]) is listed as 31 fold. In the series on human herpesviruses, the “Activity against herpesviruses” value is on record as “relatively high antiviral activity”. For the same compound, the “Toxicity for uninfected cells” value in the series on normal host cells is listed as “relatively low toxicity for uninfected cells”. Moreover, the “Interaction with viral thymidine kinase” value in [4] is given as “interaction with the herpes virus-specific thymidine kinase (TK) resulting in phosphorylation of the acycloguanosine”.

As for `O=c1[nH]c(=O)n([C@H]2C[C@H](O)[C@@H](CO)O2)cc1/C=C/Br` [BVDU, bromovinyl deoxyuridine], in the series on HSV-1-Patton (setting [7]), the Virus titer came out at 2.1 PFU/ml × 10^5. In addition, the Fold titer reduction with HSV-1-Patton (setting [8]) is given as 70 fold.

Consider `Nc1nc2c(ncn2COC(CO)CO)c(=O)[nH]1` [G*], for which the Fold titer reduction in the series with HSV-1-227 is recorded as 110 fold; in the series with HSV-1-EL 11, 22 fold; with HSV-2-EL 6 (setting [9]), 3.8 fold; in the series on HSV-2-EL 6 (setting [11]), 200 fold; in the series on HSV-2-EL 4 (setting [13]), 36 fold; with HSV-2-EL 4 (setting [14]) it was 130 fold. For the same compound, the Fold titer reduction in the series with HSV-1-Patton (setting [8]) stood at 130 fold; in the series with HSV-1-Patton (setting [15]), 24 fold; in the series on HSV-2-EL 3, 7.7 fold; with HSV-2-EL 1 it was 19 fold. In addition, the Virus titer is on record as 0.25 pfu/ml × 10^5 with HSV-1-227; 0.37 pfu/ml × 10^5 in the series with HSV-1-EL 11; 40 pfu/ml × 10^5 with HSV-2-EL 6 (setting [10]); 0.90 pfu/ml × 10^5 with HSV-2-EL 6 (setting [12]); 21 pfu/ml × 10^5 in the series with HSV-2-EL 4 (setting [13]); 5.9 pfu/ml × 10^5 with HSV-2-EL 4 (setting [14]). For the same compound, the Virus titer in the series on HSV-1-Patton (setting [7]) is on record as 1.1 PFU/ml × 10^5; in the series on HSV-1-Patton (setting [16]) it was 140 pfu/ml × 10^5; in the series on HSV-2-EL 3 it was 10.0 pfu/ml × 10^5; with HSV-2-EL 1, 8.9 pfu/ml × 10^5. Further, in [5], the “Inhibition of DP-mutants of HSV” value is reported as “able to inhibit HSV mutants lacking the ability to induce DP”. Also, the “Interaction with viral DNA polymerase” value in series [1] is on record as “not involved in the activity of virus-specific DNA-polymerase”. Moreover, the “Interaction with viral thymidine kinase” value in series [4] was “inhibits the activity of the viral thymidine kinase enzyme”.

As for `O=c1[nH]c(=O)n([C@H]2C[C@H](O)[C@@H](CO)O2)cc1I` [IDU, 5-iododeoxyuridine], the “Activity against herpesviruses” value in the series on human herpesviruses is on record as “effective only against herpes infections of the eyes”. Also, in the series with normal host cells (prior art), the “Side effects / toxicity to normal cells” value is “undesirable side effects, associated with toxicity to normal cells”.

As for `O=C(O)CP(=O)(O)O` [PAA, phosphonoacetic acid], the Fold titer reduction in the series with HSV-1-227 was determined as 26 fold; with HSV-1-EL 11, 2.9 fold; in the series with HSV-2-EL 6 (setting [11]), 5.8 fold; with HSV-2-EL 4 (setting [14]), 7500 fold; in the series on HSV-1-Patton (setting [8]), 50 fold; in the series with HSV-2-EL 3, 210 fold. Further, the Fold titer reduction in the series on HSV-2-EL 1 is 500 fold. In addition, the Virus titer is 1.1 pfu/ml × 10^5 in the series with HSV-1-227; 2.8 pfu/ml × 10^5 in the series on HSV-1-EL 11; 31.0 pfu/ml × 10^5 in the series with HSV-2-EL 6 (setting [12]); 0.10 pfu/ml × 10^5 with HSV-2-EL 4 (setting [14]); 3.2 PFU/ml × 10^5 in the series with HSV-1-Patton (setting [7]); 0.36 pfu/ml × 10^5 in the series on HSV-2-EL 3. Further, the Virus titer in the series on HSV-2-EL 1 is 0.34 pfu/ml × 10^5. Further, the “Interaction with viral DNA polymerase” value in [1] is on record as “interference with viral DNA polymerase, not viral thymidine kinase”. For the same compound, the “Resistance of DP-mutants of HSV to drug” value in series [3] was “highly resistant”. The “Activity against herpesviruses” value with human herpesviruses is “some demonstrated activity against human herpesviruses”. Also, the “Skin irritation” value in series [6] is “skin irritant”.

`O=C(O)P(=O)(O)O` [PFA, phosphonoformic acid]: the Fold titer reduction was 3.1 fold in the series on HSV-2-EL 6 (setting [9]); 2,700 fold in the series on HSV-2-EL 4 (setting [13]); 4.5 fold in the series on HSV-1-Patton (setting [15]); 750 fold with HSV-1-Patton (Table 2, G* 0.7 μg/ml, PFA 80 μg/ml, alone or combined, listed as PFF). Further, the Virus titer was determined as 48 pfu/ml × 10^5 in the series with HSV-2-EL 6 (setting [10]), 0.28 pfu/ml × 10^5 in the series on HSV-2-EL 4 (setting [13]) and 750 pfu/ml × 10^5 with HSV-1-Patton (setting [16]). The “Interaction with viral DNA polymerase” value in series [1] is listed as “interference with viral DNA polymerase, not viral thymidine kinase”. For the same compound, in the series with human herpesviruses, the “Activity against herpesviruses” value was “some demonstrated activity against human herpesviruses”. In addition, the “Skin irritation” value in [6] was “do not appear harmful”.

As to `Nc1ncnc2c1ncn2[C@@H]1O[C@H](CO)[C@@H](O)[C@@H]1O` [ara-A, Adenine arabinoside], the “Activity against herpesviruses” value with human herpesviruses is on record as “some demonstrated activity against human herpesviruses”.
